Patent publication US9220268B2, “Herbicidal benzoxazinones” (BASF SE, priority 2009, dated 2015)

Experiments:
BRAPL [1] = assay: greenhouse experiment, post-emergence, mixtures (Example 2, Colby); assay type: in vivo, Brachiaria plantaginea
Protocol: (§1) The culture containers used were plastic pots containing loamy sand with approximately 3.0% of humus as substrate. The seeds of the test plants were sown separately for each species.
(§2) For the post-emergence treatment, the test plants were grown to a plant height of from 3 to 15 cm, depending on the plant habit, and only then treated with the active compounds which had been suspended or emulsified in water. To this end, the test plants were either sown directly and grown in the same containers, or they were first grown separately as seedlings and transplanted into the test containers a few days prior to treatment.
(§3) Depending on the species, the plants were kept at 10-25° C. and 20-35° C., respectively. The test period extended over 2 to 4 weeks. During this time, the plants were tended and their response to the individual treatments was evaluated.
(§4) Evaluation was carried out using a scale from 0 to 100. 100 means no emergence of the plants, or complete destruction of at least the above-ground parts, and 0 means no damage or normal course of growth. Good herbicidal activity is given at values of at least 70, and very good herbicidal activity is given at values of at least 85.
(§5) The respective stated components A and B, and if appropriate, C were formulated as a 10% by weight strength emulsion concentrate and, with addition of the amount of solvent system, introduced into the spray liquor used for applying the active compound. In the examples, the solvent used was water.
(§6) The test period extended over 20 and 21 days, respectively. During this time, the plants were tended, and their reaction to the treatment with active compound was monitored.
(§7) In the examples below, using the method of S. R. Colby (1967) “Calculating synergistic and antagonistic responses of herbicide combinations”, Weeds 15, p. 22ff., the value E, which is expected if the activity of the individual active compounds is only additive, was calculated. […]
(§8) If the value found experimentally is higher than the value E calculated according to Colby, a synergistic effect is present.

ECHCG [2] = assay: as above; assay type: in vivo, Echinocloa crus-galli
Protocol: as §1, §2
(§9) Depending on the species, the plants were kept at 10-25° C. and 20-35° C., respectively. […] During this time, the plants were tended and their response to the individual treatments was evaluated. […]
as §6, §7, §8

ALOMY [3] = assay: as above; assay type: in vivo, Alopercurus myosuroides
Protocol: as §1, §2, §9, §6, §7, §8

AMBEL [4] = assay: greenhouse experiment, pre-emergence treatment (Use Examples); assay type: in vivo, Ambrosia elatior; settings: pre-emergence method; application rate 0.050 kg/ha; scale 0 to 100
Excerpt: (§10) The culture containers used were plastic flowerpots containing loamy sand with approximately 3.0% of humus as the substrate. The seeds of the test plants were sown separately for each species.
(§11) For the pre-emergence treatment, the active ingredients, which had been suspended or emulsified in water, were applied directly after sowing by means of finely distributing nozzles. The containers were irrigated gently to promote germination and growth and subsequently covered with transparent plastic hoods until the plants had rooted. This cover caused uniform germination of the test plants, unless this has been impaired by the active ingredients.
(§12) Depending on the species, the plants were kept at 10-25° C. or 20-35° C. The test period extended over 2 to 4 weeks. During this time, the plants were tended, and their response to the individual treatments was evaluated.
(§13) Evaluation was carried out using a scale from 0 to 100. 100 means no emergence of the plants, or complete destruction of at least the aerial moieties, and 0 means no damage, or normal course of growth. A good herbicidal activity is given at values of at least 70 and a very good herbicidal activity is given at values of at least 85.

AMBEL [5] = assay: greenhouse experiment, pre-emergence, mixtures (Example 2, Colby); assay type: in vivo, Ambrosia artemisiifolia
Excerpt: as §1
as §11, with “compounds,” for “ingredients, which had been”, “plants” for “plants,”, “was adversely affected” for “has been impaired”, “compounds.” for “ingredients.”
as §3, §4, §5, §6
(§14) In the examples below, using the method of S. R. Colby (1967) “Calculating synergistic and antagonistic responses of herbicide combinations”, Weeds 15, p. 22ff., the value E, which is expected if the activity of the individual active compounds is only additive, was calculated. E=X+Y−(X·Y/100) • where • X=percent activity using active compound A at an application rate a; • Y=percent activity using active compound B at an application rate b; • E=expected activity (in %) by A+B at application rates a+b.
as §8

ERBVI [6] = assay: greenhouse experiment, post-emergence, mixtures (Example 2, Colby); assay type: in vivo, Eriochloa villosa
Protocol: as §1, §2, §9, §6, §7, §8

ECHCG [7] = assay: greenhouse experiment, pre-emergence, mixtures (Example 2, Colby); assay type: in vivo, Echinocloa crus-galli
Excerpt: as §1
as §11, with “compounds,” for “ingredients, which had been”, “plants” for “plants,”, “was adversely affected” for “has been impaired”, “compounds.” for “ingredients.”
as §9, §6, §7, §8

BRAPL [8] = assay: greenhouse experiment, post-emergence treatment (Use Examples); assay type: in vivo, Brachiaria plantaginea; settings: post-emergence method; application rate 0.025 kg/ha; scale 0 to 100
Excerpt: as §10
(§15) For the post-emergence treatment, the test plants were first grown to a height of 3 to 15 cm, depending on the plant habit, and only then treated with the active ingredients which had been suspended or emulsified in water. For this purpose, the test plants were either sown directly and grown in the same containers, or they were first grown separately as seedlings and transplanted into the test containers a few days prior to treatment.
as §12, §13

BRAPL [9] = assay: greenhouse experiment, pre-emergence, mixtures (Example 2, Colby); assay type: in vivo, Brachiaria plantaginea
Excerpt: as §1
as §11, with “compounds,” for “ingredients, which had been”, “plants” for “plants,”, “was adversely affected” for “has been impaired”, “compounds.” for “ingredients.”
as §9, §6, §7, §8

SETFA [10] = assay: greenhouse experiment, post-emergence, mixtures (Example 2, Colby); assay type: in vivo, Setaria faberi
Protocol: as §1, §2, §9, §6, §7, §8

SETFA [11] = assay: greenhouse experiment, post-emergence treatment (Use Examples); assay type: in vivo, Setaria faberi; settings: post-emergence method; application rate 0.025 kg/ha; scale 0 to 100
Excerpt: as §10, §15, §12, §13

CHEAL = assay: greenhouse experiment, pre-emergence, mixtures (Example 2, Colby); assay type: in vivo, Chenopodium album
Excerpt: as §1
as §11, with “compounds,” for “ingredients, which had been”, “plants” for “plants,”, “was adversely affected” for “has been impaired”, “compounds.” for “ingredients.”
as §3, §4, §5, §6, §14, §8

ELEIN = assay: as above; assay type: in vivo, Eleusine indica
Excerpt: as §1
as §11, with “compounds,” for “ingredients, which had been”, “plants” for “plants,”, “was adversely affected” for “has been impaired”, “compounds.” for “ingredients.”
as §9, §6, §7, §8

SORPHA = assay: greenhouse experiment, post-emergence, mixtures (Example 2, Colby); assay type: in vivo, Sorghum halepense
Protocol: as §1, §2, §9, §6, §7, §8

SETVI = assay: greenhouse experiment, pre-emergence, mixtures (Example 2, Colby); assay type: in vivo, Setaria viridis
Excerpt: as §1
as §11, with “compounds,” for “ingredients, which had been”, “plants” for “plants,”, “was adversely affected” for “has been impaired”, “compounds.” for “ingredients.”
as §9, §6, §7, §8

ERBVI [12] = assay: as above; assay type: in vivo, Eriochloa villosa
Excerpt: as §1
as §11, with “compounds,” for “ingredients, which had been”, “plants” for “plants,”, “was adversely affected” for “has been impaired”, “compounds.” for “ingredients.”
as §9, §6, §7, §8

ALOMY [13] = assay: as above; assay type: in vivo, Alopercurus myosuroides
Excerpt: as §1
as §11, with “compounds,” for “ingredients, which had been”, “plants” for “plants,”, “was adversely affected” for “has been impaired”, “compounds.” for “ingredients.”
as §9, §6, §7, §8

BIDPI = assay: as above; assay type: in vivo, Bidens pilosa
Excerpt: as §1
as §11, with “compounds,” for “ingredients, which had been”, “plants” for “plants,”, “was adversely affected” for “has been impaired”, “compounds.” for “ingredients.”
as §9, §6, §7, §8

SORHA = assay: as above; assay type: in vivo, Sorghum halepense
Excerpt: as §1
as §11, with “compounds,” for “ingredients, which had been”, “plants” for “plants,”, “was adversely affected” for “has been impaired”, “compounds.” for “ingredients.”
as §9, §6, §7, §8

POLCO = assay: as above; assay type: in vivo, Polygonum convolvulus
Excerpt: as §1
as §11, with “compounds,” for “ingredients, which had been”, “plants” for “plants,”, “was adversely affected” for “has been impaired”, “compounds.” for “ingredients.”
as §9, §6, §7, §8

AMARE = assay: as above; assay type: in vivo, Amaranthus retroflexus
Excerpt: as §1
as §11, with “compounds,” for “ingredients, which had been”, “plants” for “plants,”, “was adversely affected” for “has been impaired”, “compounds.” for “ingredients.”
as §3, §4, §5, §6, §7, §8

Structure (SMILES): O=C(O)CNCP(=O)(O)O [B.95, glyphosate, reference compound]
- herbicidal activity against BRAPL found (BRAPL [1]; B.95 135 g/ha a.s.): 95%
- herbicidal activity against ECHCG found (ECHCG [2]; B.95 135 g/ha a.s.): 85%
- herbicidal activity against ALOMY found (ALOMY [3]; B.95 135 g/ha a.s.): 80%

Structure (SMILES): C#CCN1C(=O)C(F)(F)Oc2cc(F)c(-n3c(=O)n(C)c(=S)n(C)c3=O)cc21 [I.a.35, 1,5-dimethyl-6-thioxo-3-(2,2,7-trifluoro-3-oxo-4-(prop-2-ynyl)-3,4-dihydro-2H-benzo [b][1,4]oxazin-6-yl)-1,3,5-triazinane-2,4-dione]
- herbicidal activity against AMBEL (AMBEL [4]): very good (a very good herbicidal activity is given at values of at least 85)
- herbicidal activity against AMBEL found (AMBEL [5]; I.a.35 12.5 g/ha a.s.): 60%
- herbicidal activity against AMBEL found (AMBEL [5]; I.a.35 25 g/ha a.s.): 75%
- herbicidal activity against BRAPL found (BRAPL [1]; I.a.35 12.5 g/ha a.s.): 65%
- herbicidal activity against ERBVI found (ERBVI [6]; I.a.35 12.5 g/ha a.s.): 70%
- herbicidal activity against ECHCG found (ECHCG [7]; I.a.35 12.5 g/ha a.s.): 30%
- herbicidal activity against BRAPL (BRAPL [8]): very good (a very good herbicidal activity is given at values of at least 85)
- herbicidal activity against BRAPL found (BRAPL [9]; I.a.35 25 g/ha a.s.): 50%
- herbicidal activity against SETFA found (SETFA [10]; I.a.35 12.5 g/ha a.s.): 75%
- herbicidal activity against SETFA (SETFA [11]): very good (a very good herbicidal activity is given at values of at least 85)
- herbicidal activity against CHEAL found (CHEAL; I.a.35 3.12 g/ha a.s.): 85%
- herbicidal activity against CHEAL found (CHEAL; I.a.35 6.25 g/ha a.s.): 85%
- herbicidal activity against ELEIN found (ELEIN; I.a.35 12.5 g/ha a.s.): 45%
- herbicidal activity against ECHCG found (ECHCG [2]; I.a.35 12.5 g/ha a.s.): 75%
- herbicidal activity against SORPHA found (SORPHA; I.a.35 12.5 g/ha a.s.): 80%
- herbicidal activity against SETVI found (SETVI; I.a.35 12.5 g/ha a.s.): 90%
- herbicidal activity against ERBVI found (ERBVI [12]; I.a.35 25 g/ha a.s.): 55%
- herbicidal activity against ALOMY found (ALOMY [13]; I.a.35 25 g/ha a.s.): 65%
- herbicidal activity against BIDPI found (BIDPI; I.a.35 12.5 g/ha a.s.): 30%
- herbicidal activity against SORHA found (SORHA; I.a.35 12.5 g/ha a.s.): 60%
- herbicidal activity against POLCO found (POLCO; I.a.35 25 g/ha a.s.): 65%
- herbicidal activity against ALOMY found (ALOMY [3]; I.a.35 12.5 g/ha a.s.): 30%
- herbicidal activity against AMARE found (AMARE; I.a.35 3.12 g/ha a.s.): 70%

Structure (SMILES): CCC(CC)Nc1c([N+](=O)[O-])cc(C)c(C)c1[N+](=O)[O-] [B.101, pendimethalin, reference compound]
- herbicidal activity against ALOMY found (ALOMY [13]; B.101 400 g/ha a.s.): 75%
- herbicidal activity against POLCO found (POLCO; B.101 400 g/ha a.s.): 40%

Structure (SMILES): CC(C)N(C)S(=O)(=O)NC(=O)c1cc(-n2c(=O)cc(C(F)(F)F)n(C)c2=O)c(F)cc1Cl [B.76, saflufenacil, reference compound]
- herbicidal activity against AMBEL found (AMBEL [5]; B.76 6.25 g/ha a.s.): 75%
- herbicidal activity against BRAPL found (BRAPL [1]; B.76 12.5 g/ha a.s.): 30%
- herbicidal activity against ERBVI found (ERBVI [6]; B.76 12.5 g/ha a.s.): 60%
- herbicidal activity against SETFA found (SETFA [10]; B.76 12.5 g/ha a.s.): 30%
- herbicidal activity against CHEAL found (CHEAL; B.76 3.12 g/ha a.s.): 30%
- herbicidal activity against ELEIN found (ELEIN; B.76 6.25 g/ha a.s.): 30%
- herbicidal activity against SORPHA found (SORPHA; B.76 12.5 g/ha a.s.): 25%
- herbicidal activity against BIDPI found (BIDPI; B.76 6.25 g/ha a.s.): 60%
- herbicidal activity against SORHA found (SORHA; B.76 6.25 g/ha a.s.): 0%
- herbicidal activity against AMARE found (AMARE; B.76 3.12 g/ha a.s.): 35%

Structure (SMILES): COC[C@H](C)N(C(=O)CCl)c1c(C)csc1C [B.106, dimethenamid-p, reference compound]
- herbicidal activity against ECHCG found (ECHCG [7]; B.106 15 g/ha a.s.): 85%
- herbicidal activity against CHEAL found (CHEAL; B.106 15 g/ha a.s.): 10%
- herbicidal activity against SETVI found (SETVI; B.106 15 g/ha a.s.): 70%
- herbicidal activity against AMARE found (AMARE; B.106 15 g/ha a.s.): 75%

Structure (SMILES): Cn1nc(C(F)(F)F)c(CS(=O)(=O)C2=NOC(C)(C)C2)c1OC(F)F [B.116, pyroxasulfone, reference compound]
- herbicidal activity against AMBEL found (AMBEL [5]; B.116 6.25 g/ha a.s.): 0%
- herbicidal activity against BRAPL found (BRAPL [9]; B.116 6.25 g/ha a.s.): 30%
- herbicidal activity against ERBVI found (ERBVI [12]; B.116 6.25 g/ha a.s.): 45%
